The text below walks through data of ChEMBL document CHEMBL5303711, “ECBD screening data for assay EOS300108” (2023).

This data set is described as follows: Cytotoxicity activity against human HepG2 cells assessed by CellTiter-Glo luminescent cell viability assay. Set-up: assay stage confirmatory assay, source tissue liver. The conditions noted are these: HepG2 cells, read-out: IC50 relative. The data set is classed as toxicity, cell-based. (In general: Cellular ATP, detected with luciferase, serves as a proxy for viable cell number.)

The source made the active and inactive calls. The rule behind the calls is not given here. A value given as a limit tells only on which side of the number the result lay.

As to `CN1CCC(c2c[nH]c3ccc(NC(=O)c4ccc(F)cc4)cc23)CC1`, the CC50 was 14.2 µM (inactive).

Turning to `O=C(O)c1ccc2c3c1cccc3c(=O)n1c3ccccc3nc21`, the CC50 is 3.3 µM (active).

Take `O=C(NC(NC(=S)Nc1ccc(F)c([N+](=O)[O-])c1)C(Cl)(Cl)Cl)C(c1ccccc1)c1ccccc1` (configuration not stated): the CC50 was 6.3 µM (active).

For `Cc1c(C(=O)c2cccc3ccccc23)c2cccc3c2n1[C@H](CN1CCOCC1)CO3`, the CC50 is 3.2 µM (active).

In the case of `COc1cc(/C=C2\CCCN([C@@H](C)c3ccc(F)cc3)C2=O)ccc1-n1cnc(C)c1`, the CC50 is 12.8 µM (active).

Turning to `C=CC(=O)Nc1cccc(Oc2nc(Nc3ccc(N4CCN(C)CC4)cc3OC)ncc2Cl)c1`, the CC50 was 2.2 µM (active).

Turning to `COc1cc(N2CCC(O)CC2)ccc1Nc1cc(Nc2ccccc2S(=O)(=O)C(C)C)c2cc[nH]c2n1`, the CC50 was 12.9 µM (active).

For the compound `O=C(NCCO)c1cccc(-c2cc(Nc3ccc(OC(F)(F)F)cc3)ncn2)c1`, the CC50 is 19.4 µM (inactive).

As for `C[C@]12CCC(=O)C=C1CC[C@@H]1[C@@H]2CC[C@]2(C)C(c3cccnc3)=CC[C@@H]12`, the CC50 is 28 µM (inactive).

For `c1ccc(CCCN2CCN(CCOC(c3ccccc3)c3ccccc3)CC2)cc1`, the CC50 is 9.1 µM (active).

For `Cc1ccc2c(c1)C1(CCN(CCc3nc(-c4ccccc4)oc3C)CC1)OC(=O)N2`, the CC50 was 11.2 µM (active).

Turning to `Cc1csc(NC(=O)CSc2ccc(-c3ccccc3)nn2)n1`, the CC50 is 14.7 µM (inactive).

Consider `Cn1cc(C2=C(c3cn(CCCSC(=N)N)c4ccccc34)C(=O)NC2=O)c2ccccc21`, for which the CC50 was 1.4 µM (active).

`O=C1NCCSc2c1sc1ccc(O)cc21`: the CC50 is 1 µM (active).

Take `CCOC(=O)c1cnc2ccc(-c3cncc(NS(=O)(=O)c4ccccc4)c3)cn12`: the CC50 was 3.8 µM (active).

Take `CNc1nc(-c2ccc3c(N)n[nH]c3c2)cc(N2C[C@@H](C(=O)NC3CCCCC3)CC[C@H]2C)n1`: the CC50 is 50 µM (inactive).

In the case of `O=c1cc(N2CCOCC2)oc2c(-c3cccc4c3sc3ccccc34)cccc12`, the CC50 is 7.1 µM (active).

With `COc1cc2c(cc1-c1c(C)noc1C)ncc1[nH]c(=O)n([C@H](C)c3ccccn3)c12`, the CC50 is 1.4 µM (active).

For `COc1ccc2cc(S(=O)(=O)N[C@H](CC(=O)N[C@H](Cc3ccc(CN4[C@H](C)CCC[C@@H]4C)cc3)C(=O)N(C)C(C)C)c3ccc4c(c3)OCO4)ccc2c1`, the CC50 is 4.1 µM (active).

`CC(C)(Cc1ccc2ccccc2c1)NC[C@@H](O)COc1cccc(Cl)c1C#N`: the CC50 was 1.3 µM (active).

For `COc1ccc(N(C(=O)Oc2c(C)cccc2C)c2ccnc(Nc3ccc(N4CCN(C)CC4)cc3)n2)c(OC)c1`, the CC50 was 3.3 µM (active).

As for `C[C@@H]1CN(CC(=O)Nc2ccc3c(c2)Cc2cccc(-c4cc(=O)cc(N5CCOCC5)o4)c2S3)C[C@H](C)O1`, the CC50 is 17.8 µM (inactive).

As for `Cc1cc(NC(=O)c2cccc(NC(=O)/C=C/CN(C)C)c2)ccc1Nc1nccc(-c2cccnc2)n1`, the CC50 was 3.8 µM (active).

On to `Cc1cccc(-c2[nH]c(C(C)(C)C)nc2-c2ccc3c(c2)OCO3)n1`, for which the CC50 was 2.8 µM (active).

`CC(C)(C)c1ccccc1Oc1ncccc1NC(=O)Nc1ccc(OC(F)(F)F)cc1`: the CC50 was 7.9 µM (active).

On to `CN(C)Cc1cccc(N/C(=C2\C(=O)Nc3cc(C(=O)N(C)C)ccc32)c2ccccc2)c1`, for which the CC50 is 10 µM (active).

Regarding `O=C(Nc1ccc([N+](=O)[O-])cc1O)Nc1ccccc1Br`, the CC50 is 8.9 µM (active).

Regarding `N#C/C(=C(/N)Sc1ccc(N)cc1)c1ccccc1C(F)(F)F`, the CC50 is 8.6 µM (active).

Regarding `OCCCNc1cc(-c2ccnc(Nc3cccc(Cl)c3)n2)ccn1`, the CC50 is 1.4 µM (active).

Take `O=C(/C=C/c1ccc2ccccc2n1)c1ccncc1`: the CC50 is 1.1 µM (active).

Turning to `Nc1nc(NCCNc2ncc(-n3ccnc3)c(-c3ccc(Cl)cc3Cl)n2)ccc1[N+](=O)[O-]`, the CC50 was 50 µM (inactive).

In the case of `O=C(NCc1cccc(O)c1)Nc1nc(-c2ccncc2)cs1`, the CC50 was 10.7 µM (inactive).

Take `COc1ccc(C[C@H](NC(=O)[C@H](C)NC(=O)CN2CCOCC2)C(=O)N[C@@H](Cc2ccccc2)C(=O)[C@@]2(C)CO2)cc1`: the CC50 was 0.5 µM (active).

Consider `COc1cccc(-c2cc(F)ccc2[C@H]2Cc3nc(N)nc(C)c3C(=O)N2)n1`, for which the CC50 was < 0.1 µM (active).

Turning to `COc1cc(N2CCC(N(C)C)CC2)ccc1Nc1ncc(Cl)c(Nc2ccccc2P(C)(C)=O)n1`, the CC50 was 2.6 µM (active).

As for `COc1cc(N2CCN(C)CC2)ccc1Nc1nccc(-c2cn(C)c3cnccc23)n1`, the CC50 is 4.4 µM (active).

Regarding `C[C@@H]1CCCN1CCc1cc2cc(-c3ccc(C#N)cc3)ccc2o1`, the CC50 is 6.1 µM (active).

With `O=C(Nc1ccc2[nH]nc(-c3ccncc3)c2c1)[C@@H]1CCN(CC(=O)N2CCN(c3ccc(-c4ncccn4)cc3)CC2)C1`, the CC50 is 0.1 µM (active).

Turning to `CCn1c(=O)c(-c2ccc(Cl)cc2Cl)cc2cnc(Nc3ccc(N4CCNCC4)c(F)c3)nc21`, the CC50 was 1.5 µM (active).

Consider `CCn1c(=O)c(-c2ccc(-c3cncs3)cc2Cl)cc2cnc(Nc3ccc(N4CCN(C)CC4)cc3)nc21`, for which the CC50 was 29 µM (inactive).

For the compound `CC(C)c1cc2c(N3CCN(C4=NCC(C)(C)S4)CC3)ncnc2s1`, the CC50 is 10 µM (active).

Regarding `Oc1cc(-c2nc(-c3ccccc3)[nH]c2-c2ccncc2)ccc1Cl`, the CC50 was 0.6 µM (active).

In the case of `CCn1cc(-c2cccc(C(F)(F)F)c2)c2sc(C(=N)NC3CCS(=O)(=O)CC3)cc2c1=O`, the CC50 was 11.1 µM (active).

Take `COC(=O)C[C@@H]1N=C(c2ccc(Cl)cc2)c2c(sc(C)c2C)-n2c(C)nnc21`: the CC50 was 0.1 µM (active).

As to `Cn1ncc2cc(-c3cnc(N)c(Cl)c3N3CCC4(CCNC4=O)CC3)ccc21`, the CC50 is 5.7 µM (active).

For `COc1cc(-c2nn(CCN3CCC(N(C)C)CC3)c3ncnc(N)c23)ccc1NC(=O)OC(C)(C)C`, the CC50 is 2.1 µM (active).

On to `CC(C)(O)CNc1ncc(-c2ccnc(Nc3ccnc(Cl)c3)n2)c(CC2CC2)n1`, for which the CC50 is 4 µM (active).

As to `O=C(Nc1cccc(Nc2ncc(Br)c(NCCc3c[nH]cn3)n2)c1)N1CCCC1`, the CC50 is 3.3 µM (active).

On to `O=C(NC1(c2ccccc2)CC1)c1c(CN2CCC(N3CCCCC3)CC2)c(-c2cccc(C(F)(F)F)c2)nc2cc(Br)ccc12`, for which the CC50 is 2.6 µM (active).

For the compound `CCOC(=O)c1cnn(-c2ccc(NC(=O)C(Cl)=C(Cl)Cl)cc2)c1C(F)(F)F`, the CC50 is 1 µM (active).

In the case of `COc1cc(N2CCC(N)CC2)ccc1Nc1ncc(Cl)c(-c2c[nH]c3ccccc23)n1`, the CC50 is 4.2 µM (active).

For the compound `Cc1nc(Nc2cnn(C3CCNCC3)c2)nc2c1N(C)C(=O)c1cc3ccccc3cc1N2C`, the CC50 is 4.5 µM (active).

For the compound `CC[S+]([O-])c1nc(-c2cccc(OCc3ccccc3)c2)cc(C(F)(F)F)n1` (configuration not stated), the CC50 is 5.3 µM (active).

`COCCCN(C(=O)CCl)c1nc(-c2ccc(OC)cc2)cs1`: the CC50 was 1.5 µM (active).

For `CCCc1cc(C)[nH]c(=O)c1CNC(=O)c1cc(-c2ccc(N3CCN(C)CC3)nc2)nc2c1cnn2C(C)C`, the CC50 is 7.5 µM (active).

For `COc1ccc(N(C(=O)Nc2c(C)cccc2C)c2cc(Nc3ccc(N4CCN(C)CC4)cc3)ncn2)c(OC)c1`, the CC50 was 6.1 µM (active).

Regarding `CC(C)Oc1cc(Nc2nc(N[C@@H](C)c3ccc(F)cn3)ncc2Cl)n[nH]1`, the CC50 is 2.6 µM (active).

For the compound `Cc1cc(CS(=O)(=O)c2ccccc2)cc(OCc2ccc(CN3CCC[C@@H]3CO)cc2)c1`, the CC50 was 7.9 µM (active).

Consider `O=C(Nc1ccccc1-c1cn2c(CN3CCNCC3)csc2n1)c1cnc2ccccc2n1`, for which the CC50 is 1.6 µM (active).

For the compound `CNC(=O)c1c(F)cccc1Nc1nc(Nc2cc3c(cc2OC)CCN3C(=O)CN(C)C)nc2[nH]ccc12`, the CC50 is 3.6 µM (active).

As to `Cc1ccc2nc(NCCN)c3ncc(C)n3c2c1`, the CC50 was 1.9 µM (active).

On to `COc1ccc2c(c1)C(C(=O)N(Cc1ccc(N(C)C)cc1)c1ccc(C(C)C)cc1)CCC2` (configuration not stated), for which the CC50 is 23.2 µM (inactive).

Regarding `N#Cc1ccc(CNC(=O)CCCCCN2CCN(c3ccccc3-c3ccccc3)CC2)cc1`, the CC50 is 12.3 µM (active).

As for `O=C1NCCc2[nH]c(-c3ccncc3)cc21`, the CC50 is 0.9 µM (active).

Turning to `O=C(O)c1ccc2c(c1)nc(Nc1cccc(Cl)c1)c1ccncc12`, the CC50 is 5 µM (active).

Turning to `CC[C@@H](N)CNc1ccnc(-c2cc(-c3cnn(C)c3)ccc2O)n1`, the CC50 was 1.2 µM (active).

For the compound `CN(C)CCN(C)CCc1ccc(Cl)c(Cl)c1`, the CC50 was 15.3 µM (inactive).

Take `CC(C)(C)NC(=O)[C@@H]1C[C@@H]2CCCC[C@@H]2CN1CC(O)[C@H](Cc1ccccc1)NC(=O)[C@@H](CC(N)=O)NC(=O)c1ccc2ccccc2n1` (some centres not stated): the CC50 was 15.7 µM (inactive).

As to `Cc1c(O)cccc1C(=O)NC(CSc1ccccc1)C(O)CN1CC2CCCCC2CC1C(=O)NC(C)(C)C` (configuration not stated), the CC50 is 11.3 µM (active).

As for `CC(C)c1cnn2c(NCc3ccccc3)cc(NC[C@H]3CCNC[C@@H]3O)nc12`, the CC50 is 0.8 µM (active).

Regarding `CN(C)C[C@@H]1CCn2cc(c3ccccc32)C2=C(C(=O)NC2=O)c2cn(c3ccccc23)CCO1`, the CC50 is 3 µM (active).

In the case of `Cc1c(NC(=O)OC[C@@H]2COCCN2)cn2ncnc(Nc3ccc4c(cnn4Cc4cccc(F)c4)c3)c12`, the CC50 was 9 µM (active).

Take `CCCc1ccc(-c2ccc(N(C[C@@H](N)[C@@H](C)CC)C(=O)[C@@H]3C[C@H]3c3ccccn3)cc2)cc1`: the CC50 was 1.6 µM (active).

On to `CC(C)N(CCC(=O)c1ccc2ccccc2c1)Cc1ccccc1`, for which the CC50 is 12.9 µM (active).

Turning to `Cc1ccc([N+](=O)[O-])cc1S(=O)(=O)N(C)/N=C/c1cnc2ccc(Br)cn12`, the CC50 was < 0.1 µM (active).

With `O=C(c1cccs1)c1no[n+]([O-])c1C(=O)c1cccs1`, the CC50 is 1.8 µM (active).

`NS(=O)(=O)c1ccc(S(=O)(=O)Nc2cccc3c(Cl)c[nH]c23)cc1`: the CC50 is 13.6 µM (inactive).
